From ChEMBL document CHEMBL5532694, “PDE-stable 2'3'-cGAMP analogues, containing 5'-S-phosphorothioester linkage, as STING agonists” (RSC Med Chem, 2024)
pEC50, pIC50: −log10 of the molar value.

Tests used:
[1] = molecular target: T1, Stimulator of interferon genes protein (Homo sapiens, UniProt Q86WV6); assay: Agonist activity at STING in wildtype human THP1-Dual cells assessed as IRF activation incubated for 24 hrs by QUANTI-Luc reagent based luminescence assay; type: cell-based
[2] = molecular target: T1, Stimulator of interferon genes protein; assay: Agonist activity at STING in human THP1-Dual KI-hSTING-R232 cells assessed as IRF activation incubated for 24 hrs by QUANTI-Luc reagent based luminescence assay; type: cell-based
[3] = molecular target: T1, Stimulator of interferon genes protein; assay: Displacement of 2'-Fluo-AHC-c-di-GMP from wildtype human STING expressed in Escherichia coli BL21 (DE3) incubated for 5 mins by fluorescence polarization assay
[4] = molecular target: T2, Ectonucleotide pyrophosphatase/phosphodiesterase family member 1 (Homo sapiens, UniProt P22413); assay: Stability of compound assessed as ENPP1 (unknown origin) mediated compound degradation at 300 uM measured upto 24 hrs by HPLC analysis; type: ADME
T2 sequence (P22413 whole entry): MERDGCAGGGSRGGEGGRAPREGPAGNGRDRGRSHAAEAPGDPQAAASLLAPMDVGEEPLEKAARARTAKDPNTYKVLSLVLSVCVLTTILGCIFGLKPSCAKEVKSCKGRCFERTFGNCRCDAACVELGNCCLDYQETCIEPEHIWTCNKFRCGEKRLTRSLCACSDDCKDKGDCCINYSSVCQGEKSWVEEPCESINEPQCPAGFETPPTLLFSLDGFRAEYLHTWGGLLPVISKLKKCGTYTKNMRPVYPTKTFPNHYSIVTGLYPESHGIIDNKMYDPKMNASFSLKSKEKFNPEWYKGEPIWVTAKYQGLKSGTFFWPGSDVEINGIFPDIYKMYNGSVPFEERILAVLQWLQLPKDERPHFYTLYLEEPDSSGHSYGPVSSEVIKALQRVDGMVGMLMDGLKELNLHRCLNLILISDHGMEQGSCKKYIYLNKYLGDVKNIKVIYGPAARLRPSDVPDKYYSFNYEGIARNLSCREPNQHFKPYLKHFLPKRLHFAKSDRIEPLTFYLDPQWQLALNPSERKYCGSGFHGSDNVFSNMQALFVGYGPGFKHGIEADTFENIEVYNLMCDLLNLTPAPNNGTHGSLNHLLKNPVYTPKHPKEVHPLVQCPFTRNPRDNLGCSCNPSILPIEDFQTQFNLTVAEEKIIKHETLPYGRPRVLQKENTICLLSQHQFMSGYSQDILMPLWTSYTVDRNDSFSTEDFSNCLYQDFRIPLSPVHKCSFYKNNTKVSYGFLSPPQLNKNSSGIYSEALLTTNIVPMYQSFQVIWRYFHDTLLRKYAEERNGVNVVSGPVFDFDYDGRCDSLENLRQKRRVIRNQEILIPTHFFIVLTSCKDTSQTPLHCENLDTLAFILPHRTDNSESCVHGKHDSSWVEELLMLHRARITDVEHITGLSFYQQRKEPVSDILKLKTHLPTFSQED

[5] = Stability of compound assessed as Poxin (unknown origin) mediated compound degradation at 300 uM and measured after 3 hrs by HPLC analysis; type: ADME
[6] = Stability of compound at 95 degreeC incubated for 5 mins by HPLC analysis; type: physicochemical
[7] = molecular target: T1, Stimulator of interferon genes protein
Description: Binding affinity to wildtype human STING expressed in Escherichia coli BL21 (DE3) assessed as thermal stability by measuring increase in melting temperature by differential scanning fluorimetry analysis

[8] = Stability of compound assessed as Poxin (unknown origin) mediated compound degradation at 300 uM and measured after 24 hrs by HPLC analysis; type: ADME
[9] = Stability of compound assessed as Poxin (unknown origin) mediated compound degradation at 300 uM and measured after 30 mins by HPLC analysis; type: ADME; conditions: 0.5 h

T1 sequence (Q86WV6 whole entry): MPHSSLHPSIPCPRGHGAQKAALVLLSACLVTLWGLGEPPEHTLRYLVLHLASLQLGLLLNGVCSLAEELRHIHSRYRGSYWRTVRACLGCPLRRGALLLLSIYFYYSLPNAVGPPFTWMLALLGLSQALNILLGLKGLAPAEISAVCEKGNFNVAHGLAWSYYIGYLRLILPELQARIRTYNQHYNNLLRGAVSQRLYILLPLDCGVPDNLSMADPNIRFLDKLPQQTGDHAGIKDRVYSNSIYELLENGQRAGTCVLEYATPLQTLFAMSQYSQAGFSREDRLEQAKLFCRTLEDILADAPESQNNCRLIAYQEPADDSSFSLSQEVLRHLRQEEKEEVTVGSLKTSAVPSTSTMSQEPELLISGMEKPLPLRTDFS

Structure (SMILES)	pEC50 [1]	pEC50 [2]	pIC50 [3]	Stability [4]	Stability [5]	Stability [6]	ΔTm [7]	Stability [8]	Stability [9]
CCN(CC)CC.CCN(CC)CC.Nc1nc2c(ncn2[C@@H]2O[C@@H]3COP(=O)(O)O[C@H]4[C@@H](O)[C@H](n5cnc6c(N)ncnc65)O[C@@H]4CSP(=O)(O)O[C@@H]2[C@@H]3O)c(=O)[nH]1	4.57	4.56	4.73	Stable	Unstable	Stable	8.2 °C		
CCN(CC)CC.CCN(CC)CC.Nc1nc2c(ncn2[C@@H]2O[C@@H]3COP(=O)(O)O[C@H]4[C@@H](F)[C@H](n5cnc6c(N)ncnc65)O[C@@H]4CSP(=O)(O)O[C@@H]2[C@@H]3O)c(=O)[nH]1				Stable		Stable		Stable	
Nc1nc2c(ncn2[C@@H]2O[C@@H]3COP(=O)(O)O[C@H]4C[C@H](n5cnc6c(N)ncnc65)O[C@@H]4CSP(=O)(O)O[C@@H]2[C@@H]3O)c(=O)[nH]1	4.43	4.79	5.10						
Nc1nc2c(ncn2[C@@H]2O[C@@H]3COP(=O)(O)O[C@H]4[C@@H](O)[C@H](n5cnc6c(N)ncnc65)O[C@@H]4COP(=O)(O)O[C@@H]2[C@@H]3O)c(=O)[nH]1				Unstable		Stable			Unstable
